Values quoted from earlier work as cited in patent US20090291465A1, “Screening Method for Identifying New Drugs” (FUNDACIÓ PRIVADA PARC CIENTÍFIC DE BARCELONA, priority 2006, published 2009).

Assays:
[1] = system: isoleucyl-tRNA synthetases (IIeRS)
[2] = limits its use to topical applications

Q: Which results are given for `C/C(=C\C(=O)OCCCCCCCCC(=O)O)C[C@@H]1OC[C@H](C[C@@H]2O[C@H]2[C@@H](C)[C@H](C)O)[C@@H](O)[C@H]1O` [Pseudomonic acid]?
A: selectivity for pathogen vs. mammalian IIeRS [1]: ~8000 fold; systemic bioavailability [2]: lack of systemic bioavailability
